Measured values taken from patent US20180267025A1, “CANCER ANALYSIS SYSTEM” (Xcell Biosciences, Inc., priority 2013, published 2018).

System: single cells
Experiment: chemosensitivity assay on single cells (live-cell imaging, FIG. 10)
Format: cell-based
Details: single cell imaged before, upon addition, and 2 minutes and 5 minutes after Y-27632 treatment
Description: FIG. 10 depicts a chemosensitivity assay conducted on single cells. Target cell subpopulations can be used for personalized medicine. In the instance of CTCs and CSCs, cells can be used for chemosensitivity testing on whereby standard and exploratory chemotherapy regimens can be tested on cultured CTCs and determination of the effects of chemotherapy drugs on CTCs, including cell viability and cell division rates measurement to determine the efficacy of a given drug. An example of how a chemosensitivity assay can be applied is depicted in FIG. 10. […] In this example, Rho Kinase inhibitor, Y-27632 was used (Ishizaki et al. 2000 Pharmacological Properties of Y-27632, a specific inhibitor of rho-associated kinases. Mol Pharmacol. 57(5):976-83). […] The plasma membrane of the cell retracts upon drug treatment after 2 minutes 1015 and 5 minutes 1020.

C[C@@H](N)[C@H]1CC[C@H](C(=O)Nc2ccncc2)CC1 [Y-27632]
effect on cell adhesions and plasma membrane of a single cell upon drug treatment: loss of adhesions and retraction of the plasma membrane
